Results on one compound are retold here after patent US20190337924A1, “SUBSTITUTED HYDANTOIN AND THIOHYDANTOIN DERIVATIVES AS ANDROGEN RECEPTOR ANTAGONISTS” (Janssen Pharmaceutica NV, priority 2016, published 2019).

The subject of data set [1] is VCaP cells. As to the kind of experiment: Prostate Cancer Cell Viability Assay-VCaP. The following applies: Homo sapiens, 120 h, 10% Charcoal Stripped Serum, 5 days, CellTiter-Glo, * n = 1. It is filed as cell-based. The protocol: VCaP cells were counted and seeded into black 384-well plates with clear bottoms at a concentration of 125,000 cells per mL in phenol red-free DMEM containing 10% Charcoal Stripped Serum. 16 μL of the suspension was added per well and incubated for 48 h to allow the cells to adhere. After 48 hours, a 12 point serial semilog dilution of each compound was added to the cells in 16 μL at a final concentration of 100 µM to 0.0003 μM. The compounds of Formula (I) were also run in antagonist mode using 30 pM R1881 in which 8 μL of the compound was added to the cells followed by 8 μL of R1881. After 5 days of incubation at 37° C., 16 μL Of CellTiter-Glo (Promega) was added to the cells and the relative luminescence units (RLUs) of each well determined using the Envision. The percent stimulation and % inhibition were determined for each sample and plotted using GraphPad Prism.
(ATP-based viability assays read luminescence as a measure of living cells.)

Data set [2] deals with LNCaP F876L. As to the kind of experiment: LNCaP Proliferation Assay, LNCaP F876L. Type of data set: cell-based. To be noted: Homo sapiens, 96 h, 1% CSS, 4 days, CellTiter-Glo, normalized to 0.1 nM R1881 stimulation. The method, then:
(§1) LNCaP cells were expanded in RPMI 10% FBS in T150 flasks. The cells were dislodged with 0.25% Trypsin, washed in complete media, centrifuged (300 g, 3 min), and the supernatant aspirated. The cells were resuspended in RPMI phenol-red free media with 1% charcoal-stripped serum (CSS) and counted using a ViCELL (Beckman-Coulter). 7500 cells were added to each well of a white optical bottom 384-well plate and incubated for 2 days at 37° C. 5% CO2. Compound dilutions were prepared in RPMI CSS using 50 mM stock solutions and added to the cells either alone (agonist mode) or in combination with 0.1 nM R1881 (antagonist mode). The plates were incubated for 4 days, followed by addition of CellTiter-Glo Luminescent Cell Viability kit reagent (Promega). The plates were placed on a shaker at 3000 rpm for 10 minutes and then read on an EnVision plate reader (Perkin Elmer) using Luminescence assay default settings. The data was analyzed, normalized to 0.1 nM R1881 stimulation, and plotted in GraphPad Prism.

For data set [3], the system named is LNCaP WT. As to the kind of experiment: LNCaP Proliferation Assay, LNCaP WT. It is filed as cell-based. The following applies: Homo sapiens, 96 h, 1% CSS, 4 days, CellTiter-Glo, normalized to 0.1 nM R1881 stimulation. The method, then:
as §1

A word on the IC50: it is the midpoint of a concentration-inhibition curve. Usually melting point stands for the temperature of the solid-liquid transition. The compound `CN1CCC(Oc2ccc(N3C(=S)N(c4ccc(C#N)c(Cl)c4)C(=O)C34CCC4)cc2)CC1` [Compound 22, 2-Chloro-4-(5-(4-((1-methylpiperidin-4-yl)oxy)phenyl)-8-oxo-6-thioxo-5,7-diazaspiro[3.4]octan-7-yl)benzonitrile] showed a melting point of 152.2 °C. The compound further came in with an IC50 in data set [1] of 580 nM. In addition, the 50% inhibitory concentration (IC50) in data set [2] was found to be 3.78 µM. The IC50 in data set [3] turned out to be 2.83 µM.
